Data on 1 compound can be found in patent publication US20130331610A1, “Halogenated Pyrazolo[1,5-A]Pyrimidines, Processes, Uses, Compositions and Intermediates” (priority 2005, published 2013).

The test system of one data set is motor activity of mice. Description: In vivo predictive sedation-hypnosis test in mice (inhibition of traveled distance). Set-up: species or system mouse. The conditions noted are these: Mus musculus; ip, 98 μmol/kg, mice; read-out: % Inhib motor activity. The procedure:
2—In Vivo Determination of Predictive Sedative-Hypnotic Action
The in vivo effects of these compounds were assessed by a predictive sedation-hypnosis test in mice (D. J. Sanger et al., Eur. J. Pharmacol., 313, 35-42, 1996; and G. Griebel et al., Psychopharmacology, 146, 205-213, 1999).
Groups of 5-8 male CD1 mice, weighing 22-26 g at the time of testing, were used. The test compounds were administered in single equimolecular intraperitoneal doses, suspended in 0.25% agar with one drop of Tween 80 in a volume of 10 ml/kg. Two doses were tested in each route. Control animals received the vehicle alone. Using a Smart System (Panlab, S. L., Spain) the traveled distance in cm was recorded for each mouse at 5-min intervals during a period of 30 minutes after intraperitoneal (ip) dosing and 60 minutes after oral (po) dosing. The inhibition percentage of traveled distance of treated animals versus control animals (the first 5 min were discarded) was calculated.

For the next data set, the system named is HepG2 cells. Description: In vitro cell toxicity in HepG2 at 24 h (MTS). The class given is cell-based, human. The procedure: In Vitro Determination of Cell Toxicity in HepG2 at 24 h
HepG2 cells (human hepatocellular carcinoma) were obtained from the American Type Culture Collection (ATCC) and cultured in Eagle's Minimum Essential Medium (Eagle) with Earle's balanced salt solution adjusted to contain 1.87 mM Glutamax™ I, 0.1 mM non-essential amino acids, 1.0 mM sodium pyruvate, 100000 U/L penicillin, 10000 μg/L streptomycin 90%; fetal bovine serum, 10%. Promega CellTiter 96® Aqueous Non-Radioactive Cell Viability Assay contains the tetrazolium compound [3-(4,5-dimethylthiazol-2-yl)-5-(3-carboxymethoxyphenyl)-2-(4-sulfophenyl)-2H-tetrazolium, inner salt (MTS). The conversion of MTS into the aqueous soluble formazan product is accomplished by dehydrogenase enzymes found in metabolically active cells. The quantity of formazan product is directly proportional to the number of living cells in culture.
Compounds were dissolved in DMSO to achieve an initial concentration of 100 mM. Serial dilutions were made from this stock solution into DMSO to achieve concentrations of 10, 1, 0.1 and 0.01 mM. The stock solution and serial dilutions were then diluted 1:100 with cell culture medium to obtain […] final assay concentrations of […]. The final DMSO concentration in all wells was 1% v/v. HepG2 cells were incubated with test compounds for 24 hours. Relative cell viability was determined spectrophotometrically at 490 nm following the addition of the MTS dye and further one-hour incubation. Tamoxifen was used as the positive control.
The percent absorbance of the samples treated with the test article was compared to the untreated sample to calculate the percentage of control.

In data set [1] the target is α1 subunit of GABAA receptor (Rattus norvegicus, UniProt P18508+P62813). Description: biochemical. The text has this:
% specific binding=(X−N/T−N)×100

Data set [2] addresses α2 subunit of GABAA receptor (Rattus norvegicus, UniProt P18508+P23576). Description: biochemical.
Procedure: Determination of the Affinity of Test Compounds for α1- and α2-GABAA Receptor
Male Sprague-Dawley rats weighing 200-250 g at the time of experiment were used. After decapitation, the cerebellum (tissue that mostly contains α1-GABAA receptor) and spinal cord (tissue that mostly contains α2-GABAA receptor) were removed. […] Once the tissues weighed, they were suspended in 50 mM Tris.HCl (pH 7.4), 1:40 (v/v), or sucrose 0.32 M in the case of spinal cord, homogenized and then centrifuged at 20000 g for 10 min at 7° C. The resulting pellet was resuspended under the same conditions and centrifuged again. The pellet was finally resuspended on a minimum volume and kept at −80° C. overnight. On the next day, the process was repeated until the final pellet was resuspended at a ratio of 1:10 (v/v) in the case of cerebellum and at a ratio of 1:5 (v/v) in the case of spinal cord.
Affinity was determined by competitive tests using radiolabeled flumazenil as ligand. […] Simultaneously, the membranes were only incubated with the radiolabeled flumazenil (total binding, 100%) and in the presence of an elevated concentration of unradiolabeled flumazenil (non-specific binding, % estimation of radiolabeled ligand). The reactions started on adding the radiolabeled ligand followed by incubation for 60 minutes at 4° C. At the end of the incubation period, 200 μl of reaction were transferred to a multiscreen plate (Millipore) and filtered using a vacuum manifold and then washed three times with cold test buffer. The multiscreen plates were equipped with a GF/B filter that retained the membranes containing the receptors and the radiolabeled ligand which had been bound to the receptors. After washing, the plates were left till dry. Once dried, scintillation liquid was added and left under stirring overnight. The next day the plates were counted using a Perkin-Elmer Microbeta scintillation counter.
where, X: amount of bound ligand for every concentration of compound. T: total binding, maximum amount bound to the radiolabeled ligand. N: non-specific binding, amount of radiolabeled ligand bound in a non-specific way irrespective of the receptor used.
Every concentrations of each compound were tested in triplicate and their mean values were used to determine the experimental values of % specific binding versus the concentration of compound.

SMILES strings stand for the structures.

α2 subunit of GABAA receptor, sequence (P23576 29-451): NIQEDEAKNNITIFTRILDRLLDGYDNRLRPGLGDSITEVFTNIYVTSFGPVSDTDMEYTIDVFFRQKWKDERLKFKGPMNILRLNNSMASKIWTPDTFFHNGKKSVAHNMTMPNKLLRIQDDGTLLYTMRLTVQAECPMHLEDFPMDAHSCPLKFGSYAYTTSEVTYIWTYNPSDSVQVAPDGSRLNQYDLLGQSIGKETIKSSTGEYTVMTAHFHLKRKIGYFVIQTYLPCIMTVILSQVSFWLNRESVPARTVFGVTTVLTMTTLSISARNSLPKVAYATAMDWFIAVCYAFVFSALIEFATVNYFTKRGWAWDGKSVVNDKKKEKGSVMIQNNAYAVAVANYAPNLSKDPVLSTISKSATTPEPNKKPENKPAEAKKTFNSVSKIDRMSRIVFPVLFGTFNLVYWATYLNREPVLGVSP
α2 subunit of GABAA receptor, sequence (P18508 39-466): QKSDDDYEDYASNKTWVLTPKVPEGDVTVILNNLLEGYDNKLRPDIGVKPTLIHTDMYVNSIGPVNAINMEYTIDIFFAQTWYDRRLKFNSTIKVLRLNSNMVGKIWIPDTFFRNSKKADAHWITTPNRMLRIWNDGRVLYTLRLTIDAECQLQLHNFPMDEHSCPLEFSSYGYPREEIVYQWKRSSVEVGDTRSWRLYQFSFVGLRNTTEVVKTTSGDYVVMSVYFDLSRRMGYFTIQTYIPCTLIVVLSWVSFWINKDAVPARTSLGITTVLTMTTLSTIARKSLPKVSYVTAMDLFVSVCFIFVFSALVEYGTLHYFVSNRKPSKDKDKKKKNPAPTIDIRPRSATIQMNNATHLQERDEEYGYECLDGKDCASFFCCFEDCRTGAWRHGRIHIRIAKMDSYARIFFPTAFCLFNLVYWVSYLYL
α2 subunit of GABAA receptor, sequence (P63079 26-473 partner): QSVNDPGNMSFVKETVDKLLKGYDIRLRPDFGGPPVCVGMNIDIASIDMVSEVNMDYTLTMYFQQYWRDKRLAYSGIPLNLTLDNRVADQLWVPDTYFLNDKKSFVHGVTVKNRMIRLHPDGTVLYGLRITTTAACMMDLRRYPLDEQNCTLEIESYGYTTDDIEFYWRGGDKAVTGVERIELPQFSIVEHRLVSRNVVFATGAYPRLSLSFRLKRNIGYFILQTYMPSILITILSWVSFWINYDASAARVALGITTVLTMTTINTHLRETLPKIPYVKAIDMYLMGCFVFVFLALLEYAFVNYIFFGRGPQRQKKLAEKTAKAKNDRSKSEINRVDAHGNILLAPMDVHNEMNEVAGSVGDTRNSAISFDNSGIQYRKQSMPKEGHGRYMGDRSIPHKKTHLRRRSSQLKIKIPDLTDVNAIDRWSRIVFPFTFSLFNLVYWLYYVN
α1 subunit of GABAA receptor, sequence (P62813 28-455): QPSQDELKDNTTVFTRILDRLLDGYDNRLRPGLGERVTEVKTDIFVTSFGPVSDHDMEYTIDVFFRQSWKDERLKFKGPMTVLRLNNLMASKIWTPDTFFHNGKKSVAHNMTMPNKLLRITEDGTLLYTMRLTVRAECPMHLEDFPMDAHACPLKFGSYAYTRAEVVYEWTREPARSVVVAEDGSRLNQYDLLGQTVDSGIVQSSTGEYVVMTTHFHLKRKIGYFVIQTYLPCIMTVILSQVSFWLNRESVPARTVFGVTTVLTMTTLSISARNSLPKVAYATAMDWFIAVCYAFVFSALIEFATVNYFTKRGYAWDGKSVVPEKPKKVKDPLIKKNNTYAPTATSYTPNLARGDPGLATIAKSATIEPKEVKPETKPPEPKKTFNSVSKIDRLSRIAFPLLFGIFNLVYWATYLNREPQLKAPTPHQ
α1 subunit of GABAA receptor, sequence (P18508 39-466): as the sequence (P18508 39-466) above
α1 subunit of GABAA receptor, sequence (P63138 26-474 partner): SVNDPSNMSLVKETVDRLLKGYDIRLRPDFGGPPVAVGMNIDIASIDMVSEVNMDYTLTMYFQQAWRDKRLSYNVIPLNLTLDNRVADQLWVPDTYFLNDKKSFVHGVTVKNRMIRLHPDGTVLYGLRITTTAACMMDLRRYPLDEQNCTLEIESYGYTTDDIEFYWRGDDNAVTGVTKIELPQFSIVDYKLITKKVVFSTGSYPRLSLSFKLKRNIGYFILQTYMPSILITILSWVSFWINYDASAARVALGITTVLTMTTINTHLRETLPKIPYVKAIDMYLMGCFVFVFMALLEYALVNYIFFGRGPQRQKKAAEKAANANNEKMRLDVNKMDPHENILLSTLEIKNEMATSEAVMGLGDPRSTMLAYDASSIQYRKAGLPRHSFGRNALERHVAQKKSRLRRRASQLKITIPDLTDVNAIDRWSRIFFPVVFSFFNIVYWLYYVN

The term melting point denotes the temperature, or range, at which the solid turns liquid. `CN(c1cc(-c2ccnc3c(C(=O)c4cccs4)cnn23)ccc1Cl)S(C)(=O)=O` [Preparative example 8, N-{2-Chloro-5-[3-(thiophene-2-carbonyl)-pyrazolo[1,5-a]pyrimidin-7-yl]-phenyl}-N-methyl-methanesulfonamide] returned a melting point of 241 to 243 °C. In addition, the inhibition in vivo at 98 µmol/kg with motor activity of mice is 78.3%. Besides, the “cell toxicity in HepG2, percentage of control (relative cell viability)” value in the data set with HepG2 cells (100 μM, 24 h, MTS) amounted to 75.39%. Further, the “cytotoxicity compared with prior art compounds” value with HepG2 cells (HepG2, 24 h) is recorded as “less cytotoxicity than prior art compounds”. Further, the inhibition at 10 µM in data set [1] (read-out: % Inhib 10^−5 M) was determined as 93.8%. In addition, in data set [1] (read-out: % Inhib 10^−7 M), the inhibition at 0.1 µM turned out to be 40.9%. The inhibition at 10 µM in data set [2] (read-out: % Inhib 10^−5 M) stood at 68.9%. For the same compound, the inhibition at 0.1 µM in data set [2] (read-out: % Inhib 10^−7 M) amounted to 0%.
